Tests used:
[1] = system: acute brain slices; experiment: Late recurrent discharges in acute brain slices exposed to 0-Mg
[2] = target: T1, KCC2 (Homo sapiens, UniProt Q9H2X9); experiment: Biotinylation, plasma membrane level of KCC2 in HEK-293 cells; format: cell-based; details: 15 min
T1 construct: expressed in transfected cells; host or cells: HEK-293 (ATCC CRL-1573), transient transfection
T1 sequence (Q9H2X9 1-1116 isoform Q9H2X9-2): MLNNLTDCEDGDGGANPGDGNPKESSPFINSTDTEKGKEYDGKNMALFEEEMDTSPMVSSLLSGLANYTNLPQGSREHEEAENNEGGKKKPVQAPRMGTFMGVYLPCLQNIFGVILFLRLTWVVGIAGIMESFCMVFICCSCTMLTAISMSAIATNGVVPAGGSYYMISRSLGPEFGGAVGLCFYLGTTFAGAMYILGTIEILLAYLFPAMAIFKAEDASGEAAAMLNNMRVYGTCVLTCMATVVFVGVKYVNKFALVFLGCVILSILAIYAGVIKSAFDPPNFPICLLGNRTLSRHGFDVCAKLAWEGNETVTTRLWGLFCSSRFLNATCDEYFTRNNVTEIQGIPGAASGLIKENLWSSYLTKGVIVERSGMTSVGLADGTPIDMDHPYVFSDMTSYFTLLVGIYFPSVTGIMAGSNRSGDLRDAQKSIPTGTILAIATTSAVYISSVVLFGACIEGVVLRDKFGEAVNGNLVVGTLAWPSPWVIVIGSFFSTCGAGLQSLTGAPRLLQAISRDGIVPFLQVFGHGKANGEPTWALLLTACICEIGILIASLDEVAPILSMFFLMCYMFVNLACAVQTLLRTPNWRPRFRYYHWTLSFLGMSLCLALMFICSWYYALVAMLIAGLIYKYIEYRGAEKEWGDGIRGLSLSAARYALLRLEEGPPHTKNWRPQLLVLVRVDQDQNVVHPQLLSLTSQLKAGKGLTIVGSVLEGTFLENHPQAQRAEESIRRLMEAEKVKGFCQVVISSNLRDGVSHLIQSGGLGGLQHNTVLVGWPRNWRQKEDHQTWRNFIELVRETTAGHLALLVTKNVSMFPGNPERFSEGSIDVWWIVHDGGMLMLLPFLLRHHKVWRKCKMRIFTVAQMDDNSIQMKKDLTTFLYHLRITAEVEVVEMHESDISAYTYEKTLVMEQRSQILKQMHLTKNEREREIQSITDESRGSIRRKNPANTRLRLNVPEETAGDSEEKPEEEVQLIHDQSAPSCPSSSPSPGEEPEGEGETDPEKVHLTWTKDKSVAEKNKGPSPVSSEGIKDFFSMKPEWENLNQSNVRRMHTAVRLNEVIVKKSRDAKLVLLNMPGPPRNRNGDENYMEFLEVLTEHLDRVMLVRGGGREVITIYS
Method: Cell Culture and biotinylation. HEK-293 cells were purchased from ATCC (CRL-1573) and transfected with human KCC2 and GFP expression plasmids using Lipofectamine 2000. Cells were utilized for experimentation 48-72 h following transfection. Cells were biotinylated at 4° C. using NHS-Biotin. Following lysis and purification on immobilized avidin beads, cell surface and total fractions were subject to immunoblotting as outlined previously (Conway et al., 2017, supra).
The reliability of the biotinylation procedure was assessed via immunoblotting with antibodies against the cytosolic protein actin. Actin was present in the total lysates but was absent from the surface fractions (FIG. 2C).

[3] = target: T2, KCC4 (Homo sapiens, UniProt Q9Y666); experiment: Tl+ flux assay, HEK-293 cells expressing KCC4; format: cell-based; details: read-out: concentration at which effects on KCC4 were seen
T2 construct: expressed in transfected cells; host or cells: HEK-293
T2 sequence (Q9Y666 1-1083): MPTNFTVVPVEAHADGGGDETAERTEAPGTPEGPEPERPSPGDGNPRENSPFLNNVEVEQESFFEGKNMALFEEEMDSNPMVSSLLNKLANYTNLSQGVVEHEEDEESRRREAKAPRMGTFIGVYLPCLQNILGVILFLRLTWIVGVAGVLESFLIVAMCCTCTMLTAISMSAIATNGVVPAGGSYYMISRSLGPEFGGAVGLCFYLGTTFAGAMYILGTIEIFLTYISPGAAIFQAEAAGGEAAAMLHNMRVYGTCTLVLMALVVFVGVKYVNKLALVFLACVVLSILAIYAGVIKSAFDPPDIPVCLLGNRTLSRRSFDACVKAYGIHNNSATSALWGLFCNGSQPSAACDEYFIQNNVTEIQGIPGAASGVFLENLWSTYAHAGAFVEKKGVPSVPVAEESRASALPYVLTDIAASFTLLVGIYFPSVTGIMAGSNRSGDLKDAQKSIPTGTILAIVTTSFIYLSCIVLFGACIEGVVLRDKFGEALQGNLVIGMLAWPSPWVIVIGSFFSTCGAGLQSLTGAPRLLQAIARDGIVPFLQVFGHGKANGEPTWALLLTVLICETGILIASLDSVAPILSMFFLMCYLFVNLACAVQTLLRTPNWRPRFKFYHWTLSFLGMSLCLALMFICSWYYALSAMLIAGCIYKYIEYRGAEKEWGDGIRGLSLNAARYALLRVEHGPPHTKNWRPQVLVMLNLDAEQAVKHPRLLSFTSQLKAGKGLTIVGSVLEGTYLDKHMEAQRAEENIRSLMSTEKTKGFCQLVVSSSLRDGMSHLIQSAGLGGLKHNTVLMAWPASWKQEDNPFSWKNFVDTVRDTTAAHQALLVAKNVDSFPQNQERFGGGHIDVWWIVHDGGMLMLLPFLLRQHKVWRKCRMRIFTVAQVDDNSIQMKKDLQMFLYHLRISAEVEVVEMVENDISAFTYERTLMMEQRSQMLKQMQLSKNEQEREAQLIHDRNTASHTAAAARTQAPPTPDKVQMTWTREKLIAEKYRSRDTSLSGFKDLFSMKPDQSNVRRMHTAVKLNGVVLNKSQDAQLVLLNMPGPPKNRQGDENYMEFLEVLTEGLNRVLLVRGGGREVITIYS
Method: FLIPR TI Flux assay. HEK-293 cells were washed with HBSS, and then incubated with loading buffer containing TI sensitive fluorescent dye (https://www.moleculardevices.com), 20 μM bumetanide 20 μM ouabain and 2.5 mM probenecid for 1 h at room temperature (RT) under control conditions or with drugs in the dark using a FlexStation 3 microplate reader (Molecular Devices) and imaged […] for 30 min. Stimulus buffer was added containing 5 mM K^+/0.5 mM Tl^+ and cells were imaged every 1.5 over a 190 second time course The initial rate Tl^+ uptake (Relative Fluorescence Units (RFU) per second) was determined following addition of the stimulus buffer as outlined previously (Conway et al., 2017, supra) (Lee et al., 2022, supra).
Compared to KCC2, effects on KCC3, KCC4, and NKCC1 were only seen at concentrations more than 35-fold that of KCC2 (>100 μM) (FIG. 1G).

## C[C@@H]1CN(c2nc3c(c(Nc4ccc(C5CCCCC5)cc4)n2)COC3)CCO1 [Compound A, (R)—N-(4-cyclohexylphenyl)-2-(2-methylmorpholino)-5,7-dihydrofuro[3,4-d]pyrimidin-4-amine]
[1]
  development of late recurrent discharges (LRDs): reduced
[2]; 0.3 μM
  level of KCC2 on the plasma membrane (surface/total): 94.5±8.4 % of control
[2]; 3 μM
  level of KCC2 on the plasma membrane (surface/total): 104.7±8.4 % of control
[3]
  EC50: > 100 µM

— US20260048062A1, “FUSED AMINO PYRIMIDINE COMPOUNDS FOR TREATMENT OF PSYCHOSIS AND PSYCHOTIC DISORDERS” (Ovid Therapeutics Inc., priority 2024, published 2026)
